Source: US10238648B2 (priority 2014, dated 2019)
Where a name gives a salt, the structure may show the parent alone. Read-outs that look alike come from different tables or passages of the source.

Columns and labels:
[1] = cited from earlier work
[2] = oral dose x bioavailability
Text: [formula] [formula] [formula] Dual Penetration Enhancer Formulations

[3] = Permeation of abuse-deterrent (naloxone) formulations through separating membrane and placebo opioid layer, 72 h diffusion study; format: in vitro ADME; details: from abuse deterrent layer NLX-2014-01-011
Experimental: The ability of abuse-deterrent layer formulations to migrate into the oxymorphone layer was investigated. A placebo oxymorphone layer was prepared and two abuse-deterrent formulations (NLX-2014-01-011 and NLX-2014-01-012) were tested with different separating layers. The appearance of both formulations was uniform and aesthetically pleasing. When assembled, no distinguishable layers could be observed and the layers themselves were inseparable. Patches of size 0.95 cm^2 patches were punched out from the release liner side of the assembled roll.
Insofar as NLX-2014-01-011 is concerned, while two cells did show permeation from the abuse deterrent layer, this was probably due to the abuse deterrent layer contacting the skin, as by the end of the experiment almost no permeation was observed.

sedation in dogs = details: 4.5 mg intravenous dose reversed by 1.2 mg intravenous naloxone; cited from earlier work

COc1ccc2c3c1O[C@H]1C(=O)CC[C@H]4[C@@H](C2)N(C)CC[C@]314 [Hydrocodone]
Bioavailability ([1]; po): 80%

COc1ccc2c3c1O[C@H]1C(=O)CC[C@@]4(O)[C@@H](C2)N(C)CC[C@]314 [Oxycodone]
Bioavailability ([1]; oral): 87%

CN1CC[C@]23c4c5ccc(O)c4O[C@H]2C(=O)CC[C@@]3(O)[C@H]1C5 [Oxymorphone]
Dose after first pass effect [2]: 4.0 mg/day

C=CCN1CC[C@]23c4c5ccc(O)c4O[C@H]2C(=O)CC[C@@]3(O)[C@H]1C5 [naloxone hydrochloride]
permeability of the antagonist in the system [3]: largely impermeable

C=CCN1CC[C@]23c4c5ccc(O)c4O[C@H]2C(=O)CC[C@@]3(O)[C@H]1C5 [naloxone]
reversal of oxymorphone sedation (sedation in dogs): reversed
